Measurements taken from paper PMC4704483 (2015).

Test system: (CUG)100, internal fluorescein-labeled (RNA, repeat) CUGCUGCUGCUGCUGCUGCUGCUGCUGCUGCUGCUGCUGCUGCUGCUGCUGCUGCUGCUGCUGCUGCUGCUGCUGCUGCUGCUGCUGCUGCUGCUGCUGCUGCUGCUGCUGCUGCUGCUGCUGCUGCUGCUGCUGCUGCUGCUGCUGCUGCUGCUGCUGCUGCUGCUGCUGCUGCUGCUGCUGCUGCUGCUGCUGCUGCUGCUGCUGCUGCUGCUGCUGCUGCUGCUGCUGCUGCUGCUGCUGCUGCUGCUGCUGCUGCUGCUGCUGCUGCUGCUGCUGCUGCUGCUGCUGCUGCUGCUG
Experiment: fluorescence titration
Settings: data not shown

K d (salt form not stated) [nM]	K d [nM]	SMILES
< 1000	–	CC[C@H]1OC(=O)[C@H](C)[C@@H](O[C@H]2C[C@@](C)(OC)[C@@H](O)[C@H](C)O2)[C@H](C)[C@@H](O[C@@H]2O[C@H](C)C[C@H](N(C)C)[C@H]2O)[C@](C)(O)C[C@@H](C)C(=O)[C@H](C)[C@@H](O)[C@]1(C)O
–	< 1000	NC[C@@H]1O[C@H](O[C@H]2[C@@H](O)[C@H](O[C@@H]3[C@@H](O)[C@H](N)C[C@H](N)[C@H]3O[C@H]3O[C@H](CN)[C@@H](O)[C@H](O)[C@H]3N)O[C@@H]2CO)[C@H](N)[C@@H](O)[C@@H]1O
